Where a SMILES comes first, the peptide text is derived from it. Where no end group is shown, it is not given here. Side-chain parts run from the residue outwards. The star is where a group is joined. 5FAM = O=C1OC2(c3ccc(O)cc3Oc3cc(O)ccc32)c2ccc(C(=O)*)cc21; Ahx = NCCCCCC(=O)O
Key:
[1] = system: EYFP and hABH21-10-EYFP expressing cells; experiment: Flow analysis of the cell cycle after treatment with alkylating agents; type: cell-based
From the text: (§1) This is surprising since TMZ is believed to induce mainly O^6methyl-G which is repair by a direct repair mechanism by MGMT, not involving removal of any bases or strand breaks. […] The cells were still arrested in G2/M on day 3.

[2] = system: EYFP and hABH21-10-EYFP expressing cells; experiment: Comet assay for DNA repair intermediates after treatment with alkylating agents; type: cell-based
From the text: as §1

[3] = system: cell membranes; type: cell-based
Procedure: The cells were treated with different concentrations (2, 4 and 8 μM) of peptide for 1 hour. Next, propidium iodide (PI) (50 μg/ml in PBS) was added, this will stain DNA if the cell membranes are permeable. Analysis were done within the next 10 minutes on a FACS Canto flow cytometer (BD-Life Science).

[4] = system: HeLa cells; experiment: MTT assay, peptide with cytostatic drugs (MMS, Cisplatin); type: cell-based
Procedure: The effects of the peptides in sensitising cells to the effects of cytostatic drugs were investigated using an MTT assay and a clonogenic assay (CFU assay) as described below.
HeLa cells were seeded into 96 well plates (6000 cells/well) and incubated for 3 hours. Various doses of MMS and Cisplatin were added to the wells. After 24 hours peptides were added to the cells in serum free media and incubated for 1 h. Fresh media with cytostatic drugs was added and the cells were harvested after additional 24, 48 and 72 hours. MTT was added to the cells (3-(4,5-Dimethylthiazol-2-yl)-2,5-diphenyltetrazolium bromide) and OD was measured at 570 nm [52], and the average from at least 6 wells was used to calculate cell survival. Data is presented as growth from one representative experiment and has been reproduced at least 2 times.

[5] = system: HeLa cells
Procedure: HeLa cells were seeded into 96 well plates (6000 cells/well) and incubated for 3 hours. Various doses of peptides were added to the wells in presence (filled diamonds) or absence of serum (filled square) in the media. After 1 h equal volume media with 10% or 20% serum (to serum free media) were added to the wells. The cells were incubated for 48 hours before measurement of cell survival by the MTT assay.
Cytotoxicity of the peptides was investigated by an MTT assay as described below, using the peptides alone, in the absence of cytostatic drugs. Cytotoxicity data was also obtained from controls used in the cytostatic drug MTT assays (controls with peptide but without cytostatic drug), where the control peptides were followed for longer (4 days).
Cytotoxicity of the peptides after 48 hours are measured using the MTT assay. HeLa cells were seeded into 96 well plates (6000 cells/well) and incubated for 3 hours. Various doses of peptides were added to the wells in presence or absence of serum in the media. After 1 h equal volume media with 1× or 2× (to serum free media) were added and the cells incubated for 48 hours before addition of MTT (see above).

[6] = system: HeLa cells; experiment: Cell survival assay (MTT) of HeLa cells expressing the construct, with alkylating agents; type: cell-based
Procedure: HeLa and HaCaT cells were seeded into 96 well plates (4000 cells/well) and incubated for 4 hours. […] The U2OS cells were exposed to MMS and TMZ only. The cells were exposed continuously until harvest. Cells were harvested every day for 4 days using the MTT assay (Mosmann, 1983). OD was measured at 570 nm, and the average from at least 6 wells was used to calculate cell survival. Data presented is growth from one representative experiment and has been reproduced at least 2 times. […] TZM is reported to be an O^6G methylating agent, while MMC causes interstrand cross links via N-alkylation of guanine in CpG's.

[7] = target: T1, PCNA (Homo sapiens, UniProt P12004); experiment: Co-localisation of EYFP fusion constructs with ECFP-PCNA by confocal imaging; type: cell-based; settings: co-expressed with ECFP-PCNA
T1 construct: endogenous in cells; host or cells: HeLa cells stably expressing the EYFP fusion constructs; fractionated cell extracts
Procedure: Confocal imaging and FRET measurements Live HeLa cells were examined 16-24 hours after transient transfection (by Fugene 6 (Roche Inc.) according to the manufacturer's recommendations) of ECFP and EYFP fusion constructs. Fluorescent images were acquired using a Zeiss LSM 510 Meta laser scanning microscope equipped with a Plan-Apochromat 63×/1.4 oil immersion objective. Enhanced cyan fluorescent protein (ECFP) was excited at λ=458 nm and detected at λ=470-500 nm and enhanced yellow fluorescent protein (EYFP) was excited at λ=514 nm and detected at λ=530-600 nm, using consecutive scans. The thickness of the slice was 1 μm.
PCNA tagged with cyan fluorescent protein (ECFP) was co-expressed with various hABH2 deletion constructs fused with yellow fluorescent protein (EYFP). […] (FIG. 1).

[8] = target: T1, PCNA; experiment: Co-immunoprecipitation and western analysis of endogenous PCNA; type: binding; settings: anti-GFP immunoprecipitation, extracts of stably expressing cells
Procedure: HeLa (cervical cancer) and HaCaT (spontaneously transformed keratinocyte) cells stably expressing the constructs of interest were prepared by transfection (by Fugene 6) followed by cell sorting or cloning by dilution, and prolonged culturing in selective (using geneticin, G418, 400 μg/ml, Invitrogen) Dulbecco's modified Eagle's Medium high glucose 4.5 g/l (DMEM) (BioWhittaker®) supplemented with 10% Fetal Calf Serum (FCS), Amphotericin B (250 μg/ml, Sigma-Aldrich), gentamycin (100 μg/ml, Gibco) and glutamine (1 mM, BioWhittaker®). The cells were cultured at 37° C. in 5% carbon dioxide, humidified atmosphere. Fractionated cell extracts from HeLa were prepared by resuspending the cell pellets in 1× packed cell volume (PCV) in buffer I (10 mM Tris-HCl, pH 8.0 and 50 mM KCl) and 1×PCV in buffer II (10 mM Tris-HCl, 100 mM KCl, 20% glycerol, 0.5% Nonidet P-40, 10 mM EGTA, 10 mM MgCl2, 1 mM DTT, 1× Complete protease inhibitor (Roche), phosphates inhibitor cocktail (PIC I and PIC II, Sigma). Cells were incubated under constant shaking for 30 min at 4° C. The supernatant (soluble fraction) was harvested. The pellet (containing nuclei) was resuspended in 1×PCV of buffer III (10 mM Tris-HCl, pH 8.0 and 100 mM KCl) and 1×PCV buffer II, and briefly sonicated until all nuclei were disrupted. […]

[9] = system: HaCaT (spontaneously transformed keratinocyte) cells; experiment: Cell survival assay of HaCaT cells stably expressing the construct; type: cell-based
Procedure: HeLa and HaCaT cells were seeded into 96 well plates (4000 cells/well) and incubated for 4 hours. […] The U2OS cells were exposed to MMS and TMZ only. The cells were exposed continuously until harvest. Cells were harvested every day for 4 days using the MTT assay (Mosmann, 1983). OD was measured at 570 nm, and the average from at least 6 wells was used to calculate cell survival. Data presented is growth from one representative experiment and has been reproduced at least 2 times.

[10] = target: T1, PCNA; experiment: FRET measurement with ECFP-PCNA; type: cell-based; settings: positive FRET: distance between tags less than 100 Å
From the text: Fluorescent resonance energy transfer (FRET) occurs if the tags (EYFP and ECFP) are less than 100 Å (10 nm) apart. We detected FRET using the sensitised emission method, measuring acceptor (EYFP) emission upon donor (ECFP) excitation. We had FRET when the intensity of emitted light from EYFP after excitation of the ECFP fluorochrome was stronger than the light emitted by ECFP or EYFP-tagged proteins alone, after excitation with the EYFP and ECFP lasers respectively (bleed through), given by the equation: FRET=I2−I1 (ID2/ID1)−I3 (IA2/IA3) is >0. FRET was normalised for expression levels using the equation: NFRET=FRET/(I1×I3)^1/2. NFRET was calculated from mean intensities (I) within a region of interest (ROI) containing more than 25 pixels where all pixels had intensities below 250 and the average intensities were between 100 and 200 for both the donor and the acceptor constructs. Channel 1 (ECFP) and 3 (EYFP) were measured as described above for imaging, and channel 2 (FRET) was excitated with 2=458 nm and detected at λ=530-600 nm. ID1, D2, D3 and IA1, A2, A3 were determined for cells transfected with ECFP and EYFP constructs only, with same settings and same fluorescence intensities as co-transfected cells (I1 and I3). […]
To examine the degree of proximity of hABH2 and PCNA, fluorescence resonance energy transfer (FRET) was measured.

[11] = HeLa cells expressing the construct

T1 sequence (P12004 whole entry, the tested form may be a part): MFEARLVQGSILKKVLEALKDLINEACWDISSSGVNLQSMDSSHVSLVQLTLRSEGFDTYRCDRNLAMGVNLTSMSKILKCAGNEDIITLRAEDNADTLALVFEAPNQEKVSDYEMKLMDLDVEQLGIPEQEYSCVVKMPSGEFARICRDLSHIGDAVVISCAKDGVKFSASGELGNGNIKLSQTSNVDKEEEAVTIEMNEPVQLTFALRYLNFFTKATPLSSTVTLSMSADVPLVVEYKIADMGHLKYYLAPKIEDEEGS

## O=NN(CCCl)C(=O)NCCCl [BCNU, 1,3-Bis(2-chloroethyl)-1-nitrosourea]
[1]
  cell cycle effect: transient G2/M arrest on day 1
[2]
  DNA repair intermediates (abasic sites, SSB, DSB): very low levels of repair intermediates

## CC[C@H](C)[C@H](NC(=O)[C@H](CCCCN)NC(=O)[C@@H](NC(=O)[C@H](CCC(N)=O)NC(=O)[C@H](CCCNC(=N)N)NC(=O)[C@H](CC(C)C)NC(=O)[C@@H](NC(=O)[C@H](CCCCN)NC(=O)[C@H](CCCNC(=N)N)NC(=O)[C@H](CCCCN)NC(=O)[C@H](CCCCN)NC(=O)[C@H](CCCCN)NC(=O)[C@@H]1CCCN1C(=O)[C@H](CCC(N)=O)NC(=O)[C@H](C)NC(=O)CNC(=O)[C@H](CCCCN)NC(=O)[C@@H](NC(=O)[C@H](CC(C)C)NC(=O)[C@H](Cc1c[nH]c2ccccc12)NC(=O)[C@H](CCCNC(=N)N)NC(=O)[C@H](CC(=O)O)NC(=O)[C@@H](N)CCSC)C(C)C)C(C)C)[C@@H](C)CC)C(=O)N[C@@H](Cc1c[nH]c2ccccc12)C(=O)N[C@@H](Cc1ccccc1)C(=O)N[C@@H](CCC(N)=O)C(=O)N[C@@H](CC(N)=O)C(=O)N[C@@H](CCCNC(=N)N)C(=O)N[C@@H](CCCNC(=N)N)C(=O)N[C@@H](CCSC)C(=O)N[C@@H](CCCCN)C(=O)N[C@@H](Cc1c[nH]c2ccccc12)C(=O)N[C@@H](CCCCN)C(=O)N[C@@H](CCCCNC(=O)CCCCCNC(=O)c1ccc2c(c1)C(=O)OC21c2ccc(O)cc2Oc2cc(O)ccc21)C(=O)NCC(=O)O [MDR2] (H-MDRWLVKGAQPKKKRKVLRQIKIWFQNRRMKWKK([Ahx-5FAM])G-OH)
[3]
  membrane toxicity: membrane toxicity is low

## COS(C)(=O)=O [MMS, methyl methanesulfonate]
[1]
  cell cycle effect: S-phase arrest
[2]
  DNA repair intermediates (abasic sites, SSB, DSB): highest levels of DNA repair intermediates after 4 hours

## Cn1nnc2c(C(N)=O)ncn2c1=O [TMZ, 4-methyl-5-oxo-2,3,4,6,8-pentazabicyclo [4.3.0] nona-2,7,9-triene-9-carboxamide]
[1]
  cell cycle effect: arrested in G2/M up to day 3
[2]
  DNA repair intermediates (abasic sites, SSB, DSB): highest levels of repair intermediates after 4 hours

## Ac-MDRWLVKWKKKRKIRRRRRRRRRRR [MDR26-72-0]
[4]
  activity in the MTT assay: good activity

## MDRWLVKRIWKKKRKIIRQIKIWFQNRRMKWKK-Ahx5-FAM)G (not fully specified (residue 33, C-terminus); printed as MDRWLVKRIWKKKRKIIRQIKIWFQNRRMKWKK-Ahx5-FAM)G; also: Ahx5-FAM label and G at C-terminal end, arrangement unclear) [MDR26-8]
[5]
  Cytotoxicity: +

## hABH21-10-EYFP: the 10 N-terminal amino acids of hABH2 fused to EYFP, expressed in cells (MDRFLVKGAQ; not fully specified (C-terminus); also: fused to EYFP, expressed in cells)
[6]; [11]
  sensitisation to MMS: sensitised HeLa cells to treatment with MMS
  sensitisation to the other cytostatic agents (BCNU, TZM, MMC): sensitised HeLa cells to all of the other cytostatic agents tested
[6]; over-expression, no cytostatic agent
  growth rate of untreated cells: did not interfere with the growth rate of untreated cells
[7]
  co-localisation with PCNA in replication foci: sufficient for co-localisation with PCNA
[8]
  pull-down of endogenous PCNA: pulled down
[9]
  sensitivity to MMS and TMZ: hypersensitive to MMS and TMZ
[10]
  FRET with ECFP-PCNA: positive FRET

— patent publication US9676822B2, “Oligopeptidic compounds and uses thereof” (APIM THERAPEUTICS AS, priority 2008, dated 2017)
